Experimental data reported in patent US11786555B2, “RAR selective agonists in combination with immune modulators for cancer immunotherapy” (IO THERAPEUTICS, INC., priority 2017, dated 2023).

Tests used:
[1] = system: naive CD4+ CD25− FoxP3− cells; assay: in vitro Th17 cell differentiation; type: cell-based, mouse; settings: 0.1 nM
Procedure: To determine whether a RARα agonist could affect T cell differentiation, T cells were incubated with a RARα agonist to determine its effect on Foxp3 expression. Naive CD4^+ CD25^− FoxP3^− cells were purified from a Foxp3-GFP mouse using flow cytometry by sorting and isolating based upon a GFP^− phenotype. These cells were activated polyclonally with αCD3 in vitro in the presence of IL-2 and TGF-β. These cells were then cultured in media with various concentrations of compound IRX5183 (a RARα agonist) and the expression of FoxP3-GFP was analyzed by flow cytometry. The RARα agonist compound IRX5183 enhanced differentiation of immunosuppressive Treg cells and inhibited differentiation of inflammatory TH17 cells from naïve T cells in vitro (Table 2).

[2] = system: H929 cells and CD138+ primary MM cells; assay: qRT-PCR of B cell and PC markers in MM cells, liquid or BM stroma co-culture; type: cell-based, human
Procedure: FIG. 3A-H depicts the relative concentration of plasma markers BCL6 (FIG. 3A and E), BLIMP-1 (FIG. 3B and F), XBPS-1 (FIG. 3C and G), and CHOP (FIG. 3D and H) in multiple myeloma (MM) cell lines H929 (FIG. 3A-D) or CD138+ MM cells from three different patient samples (FIG. 3E-H) incubated for 5 days either in the absence of stroma (Liquid), with or without AGN (RA receptor antagonist AGN194310, 1 μM), or co-cultured with BM mesenchymal cells (Stroma), with or without R115 (CYP26 inhibitor R115866, 1 μM) or IRX (CYP26-resistant retinoid IRX5183, 1 μM). Expression in untreated liquid conditions was set at 1. Data are representative of 3 independent experiments with similar results and represent the mean ±SEM. *P≤0.05 and **P≤0.01, by repeated-measures 1-way ANOVA for determination of statistical significance between groups; P values were corrected for multiple comparisons using Dunnett's test. Ctrl, control; max, maximum.
Coculture experiments. 24-well plates were coated with 0.1% gelatin in PBS for 30 min at 37° C. The gelatin solution was removed, and the stromal cells were cultured overnight at a density of 5×10^4 cells/well to obtain a confluent monolayer. At that time, MM cell lines or primary MM cells (1×10^5 in 2 ml) were added to the stroma cultures. The stroma cocultures were incubated at 37° C. in RPMI containing 10% FCS, L-glutamine, and P/S, with or without AGN194310 (1 μM for 5 days), R115866 (1 μM for 5 days), IRX5183 (1 μM for 5 days), or BTZ (2.5 nM for 48 hr).
qRT-PCR. Total RNA was extracted using the RNeasy Mini Kit (QIAGEN) according to the manufacturer's instructions. cDNA was synthesized by reverse transcription using the iScript cDNA Synthesis Kit (Bio-Rad). qRT-PCR was performed with iTaq SYBR Green Supermix (Bio-Rad) using sequence specific primers. Gene expression was normalized to GAPDH, and relative quantification was calculated using ΔΔCt. All experiments were performed in duplicate and run on the Bio-Rad CFX96 machine.
The BM microenvironment (also called “niche”) limits PC differentiation by modulating retinoid signaling. A population of MM progenitors, phenotypically similar to B cells, is intrinsically resistant to BTZ and contributes to MRD and relapse. To investigate whether the BM niche plays a role in determining the phenotype of MM cells, the mRNA expression of B cell and PC markers in MM H929 cell lines (FIG. 3A-D) and MM CD138+ primary cells (FIG. 3E-H) was analyzed following co-culture with mouse BM stroma using human-specific primers. […] In contrast, co-culture of MM cells with BM stroma decreased the mRNA expression of B lymphocyte-induced maturation protein 1 (BLIMP1) and spliced X box-binding protein 1 (XBP1s) (FIG. 3B, C, F, G), which are critical mediators of PC differentiation.
The BM niche regulates hematopoietic stem cell (HSC) differentiation by expressing the retinoid-inactivating enzyme CYP26. CYP26 enzymes were highly expressed in BM mesenchymal cells, while their expression was barely detectable in MM cells. Since retinoid signaling promotes PC differentiation and potentiates Ig secretion, it was determined whether stromal CYP26 is responsible for inducing a B cell phenotype in MM cells. To this end, co-culture conditions were treated with the CYP26 inhibitor R115866 (R115) or the CYP26-resistant RA receptor α-selective (RARα-selective) retinoid IRX5183 (IRX).

[3] = system: H929 Luc+ cells with WT or Smo-KO stroma; assay: subcutaneous xenograft model of MM-niche interactions, bioluminescence; type: in vivo, mouse
Procedure: FIG. 9 depicts bioluminescent images of mice showing tumor burden during 4 weeks of treatment with IRX (10 mg/kg), BTZ (0.5 mg/kg), or the combination. Anterior tumors consisted of a combination of MM.1S luciferase^+ cells and Smo^FI/FI BM stroma cells transduced with a control vector (WT BM stroma). Posterior tumors consisted of a combination of MM.1S luciferase^+ cells and Smo^FI/FI BM stroma cells transduced with Cre-recombinase (Smo KO BM stroma).
FIG. 10 depicts the fold change in bioluminescence (photons/second) of tumors during 4 weeks of treatment. The change in bioluminescence for each tumor […].
Mouse xenografts. 1×10^6 H929 Luc+ cells and 1×10^6 mouse BM stromal cells were resuspended in 100 μl […]®, diluted with RPMI (1:1), and injected subcutaneously into 16-week-old male NSG mice. After 4 days, treatment with BTZ (0.5 mg/kg i.p. twice weekly) and IRX (10 mg/kg i.p. daily) was initiated. Tumor burden was assessed by bioluminescence using the In Vivo Imaging System (PerkinElmer). For imaging, mice were exposed to 120 mg/kg D-luciferin via intraperitoneal injection […] before imaging and were anesthetized using isoflurane. Images were analyzed with Living Image Software, version 2.5 (PerkinElmer), and data were quantified as photons/second.
To study to what extent an RA-low environment created by the BM stroma and enhanced by MM cells via paracrine Hedgehog signaling contributes to BTZ resistance, a xenograft model of MM-niche interactions was developed. Each mouse carried 2 subcutaneous tumors consisting of H929 Luc+ cells and either WT (anterior tumors) or Smo-KO stroma (posterior tumors). Mice were treated with IRX (10 mg/kg i.p. daily), BTZ (0.5 mg/kg i.p. twice weekly), or a combination of both. The growth of tumors bearing WT or Smo-KO stroma was not different in untreated or IRX-treated groups (FIGS. 9 and 10). […] While some tumors in the treatment group receiving combined IRX and BTZ appeared to have regressed completely, even after anatomical study, this was not the case for all the mice in this group.

RARα = assay: transactivation assay, agonist activity; settings: RARα versus RARβ and RARγ, FIG. 1
Excerpt: Transactivation assays employ expression plasmids encoding the full length receptors RARα, RARβ, and RARγ. Reporter plasmids containing the herpes virus thymidine kinase promoter and the appropriate retinoic acid receptor response element (RAREs) are positioned upstream of an open coding region encoding firefly luciferase.

For CC1(C)CCC(C)(C)c2c1cc(C(=O)Nc1cc(F)c(C(=O)O)c(F)c1)c(O)c2Cl [IRX5183], the “Th17 cell Percent Differentiation” value [1] was 32%, the “expression of differentiation markers by qRT-PCR or flow cytometry” value ([2]; liquid conditions compared with BM stroma) was “induced comparable changes, irrespective of the presence or absence of BM stroma” and the “mRNA expression of B cell and PC markers (BCL6, BLIMP1, XBP1s, CHOP)” value ([2]; stroma co-cultures, 1 μM for 5 days) was “restored all markers to levels comparable to those of liquid control conditions”. For the same molecule, the “growth of tumors bearing WT versus Smo-KO stroma” value ([3]; IRX 10 mg/kg i.p. daily) was “not different”, the “tumor response (bioluminescence)” value ([3]; combination of IRX and BTZ, WT or Smo-KO stroma) was “significant and equivalent response, regardless of the phenotype of the stromal compartment” and the “agonist activity (transactivation)” value (RARα) was “specifically activates RARα”.
